Test results taken from patent US20100298141A1, “SUBSTITUTED PYRIDINE N-OXIDE HERBICIDES” (E. I. DU PONT DE NEMOURS AND COMPANY, priority 2007, published 2010).

Columns and labels:
wild oat = assay: Test C pre-/postemergence test; format: in vivo, Avena fatua; settings: for Plant response rating, Oat, Wild: 31 g ai/ha, scale 0 to 100 (0 no effect, 100 complete control)
How it was run: (§1)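 Test chemicals were formulated with surfactant in a non-phytotoxic solvent and sprayed both on freshly planted seeds (preemergence) and on 1- to 4-leaf plants of 2–18 cm (postemergence). Flooded-paddy pots received compound directly into 3 cm of standing water, maintained for the test.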

catchweed bedstraw = assay: Test C pre-/postemergence test; format: in vivo, Galium aparine; settings: for Plant response rating, Galium: 31 g ai/ha, scale 0 to 100 (0 no effect, 100 complete control)
How it was run: as §1

velvetleaf [1] = assay: Test A pre-/postemergence greenhouse test; format: in vivo, Abutilon theophrasti; settings: for Plant response rating, Velvetleaf: 0 to 100 scale where 0 is no effect and 100 is complete control; for Velvetleaf plant response rating: 0 to 100 scale
How it was run: (§2)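 Visual injury ratings, made relative to untreated controls roughly ten days after treatment, cover both preemergence and postemergence application. Compounds in a surfactant-containing non-phytotoxic solvent were sprayed onto the soil surface after sowing and, simultaneously, onto young plants at the one- to two-leaf stage.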

eastern black nightshade = assay: Test C pre-/postemergence test; format: in vivo, Solanum ptycanthum; settings: for Plant response rating, Nightshade: 31 g ai/ha, scale 0 to 100 (0 no effect, 100 complete control)
How it was run: as §1

corn = assay: Test C pre-/postemergence test; format: in vivo, Zea mays
How it was run: as §1

rice = assay: Test C flooded paddy test; format: in vivo, Oryza sativa; settings: Flood
How it was run: (§3)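 Flooded 3 cm over soil; compound into paddy water; depth kept constant. Greenhouse 13–15 d.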

giant foxtail = assay: Test C pre-/postemergence test; format: in vivo, Setaria faberii; settings: for Plant response rating, Foxtail, Giant: 31 g ai/ha, scale 0 to 100 (0 no effect, 100 complete control)
How it was run: as §1

morningglory = assay: Test C pre-/postemergence test; format: in vivo, Ipomoea coccinea; settings: for Plant response rating, Morningglory: 31 g ai/ha, scale 0 to 100 (0 no effect, 100 complete control)
How it was run: as §1

redroot pigweed = assay: Test A pre-/postemergence greenhouse test; format: in vivo, Amaranthus retroflexus; settings: for Plant response rating, Pigweed: 0 to 100 scale where 0 is no effect and 100 is complete control; for Pigweed plant response rating: 0 to 100 scale
How it was run: as §2

downy brome = assay: Test C pre-/postemergence test; format: in vivo, Bromus tectorum; settings: for Plant response rating, Bromegrass, Downy: 31 g ai/ha, scale 0 to 100 (0 no effect, 100 complete control)
How it was run: as §1

wheat [2] = assay: Test C pre-/postemergence test; format: in vivo, Triticum aestivum; settings: for Plant response rating, Wheat: 31 g ai/ha, scale 0 to 100 (0 no effect, 100 complete control)
How it was run: as §1

duck salad = assay: Test C flooded paddy test; format: in vivo, Heteranthera limosa; settings: Flood
How it was run: as §3

velvetleaf [3] = assay: Test C pre-/postemergence test; format: in vivo, Abutilon theophrasti; settings: for Plant response rating, Velvetleaf: 31 g ai/ha, scale 0 to 100 (0 no effect, 100 complete control)
How it was run: as §1

yellow nutsedge = assay: Test C pre-/postemergence test; format: in vivo, Cyperus esculentus; settings: for Plant response rating, Nutsedge, Yellow: 31 g ai/ha, scale 0 to 100 (0 no effect, 100 complete control)
How it was run: as §1

wheat [4] = assay: Test A pre-/postemergence greenhouse test; format: in vivo, Triticum aestivum; settings: for Plant response rating, Wheat: 0 to 100 scale where 0 is no effect and 100 is complete control; for Wheat plant response rating: 0 to 100 scale
How it was run: as §2

woolly cupgrass = assay: Test C pre-/postemergence test; format: in vivo, Eriochloa villosa; settings: for Plant response rating, Cupgrass, Woolly: 31 g ai/ha, scale 0 to 100 (0 no effect, 100 complete control)
How it was run: as §1

johnsongrass = assay: Test C pre-/postemergence test; format: in vivo, Sorghum halepense; settings: for Plant response rating, Johnsongrass: 31 g ai/ha, scale 0 to 100 (0 no effect, 100 complete control)
How it was run: as §1

[5] = 62 g ai/ha, Preemergence, scale 0 to 100
[6] = 125 g ai/ha, preemergence, scale 0 (no effect) to 100 (complete control)
[7] = preemergence, 250 g ai/ha, scale 0 (no effect) to 100 (complete control)
[8] = Postemergence, 500 g ai/ha, 0 is no effect, 100 is complete control
[9] = Preemergence, 125 g ai/ha, 0 no effect, 100 complete control
[10] = 62 g ai/ha, scale 0 to 100 (0 no effect, 100 complete control)
[11] = 250 g ai/ha, scale 0 to 100, 0 no effect, 100 complete control, 13 to 15 days
[12] = Preemergence, 500 g ai/ha, 0 no effect, 100 complete control

SMILES: C#CCOc1c(C[S+]([O-])c2cccc[n+]2[O-])c(C(F)(F)F)nn1C (stereo not shown) [Compound 76]
- Oat, Wild plant response rating (wild oat; [5]): 50
- Oat, Wild plant response rating (wild oat; [6]): 60
- Plant response rating, Oat, Wild (wild oat; Preemergence): 0
- Oat, Wild plant response rating (wild oat; [7]): 95
- Galium plant response rating (catchweed bedstraw; [5]): 100
- Galium plant response rating (catchweed bedstraw; [6]): 100
- Plant response rating, Galium (catchweed bedstraw; Preemergence): 100
- Galium plant response rating (catchweed bedstraw; [7]): 100
- Plant response rating, Velvetleaf (velvetleaf [1]; Postemergence, 125 g ai/ha): 60
- Velvetleaf plant response rating (velvetleaf [1]; [8]): 80
- Velvetleaf plant response rating (velvetleaf [1]; [9]): 50
- Plant response rating, Velvetleaf (velvetleaf [1]; Preemergence, 500 g ai/ha): 80
- Nightshade plant response rating (eastern black nightshade; [5]): 85
- Nightshade plant response rating (eastern black nightshade; [6]): 90
- Plant response rating, Nightshade (eastern black nightshade; Preemergence): 85
- Nightshade plant response rating (eastern black nightshade; [7]): 100
- Corn plant response rating (corn; [5]): 80
- Corn plant response rating (corn; [6]): 100
- Plant response rating, Corn (corn; Preemergence, 31 g ai/ha, scale 0 to 100 (0 no effect, 100 complete control)): 0
- Corn plant response rating (corn; [7]): 100
- Plant response rating, Rice (rice; [10]): 0
- Plant response rating, Rice (rice; [11]): 30
- Foxtail, Giant plant response rating (giant foxtail; [5]): 90
- Foxtail, Giant plant response rating (giant foxtail; [6]): 100
- Plant response rating, Foxtail, Giant (giant foxtail; Preemergence): 75
- Foxtail, Giant plant response rating (giant foxtail; [7]): 100
- Morningglory plant response rating (morningglory; [5]): 20
- Morningglory plant response rating (morningglory; [6]): 100
- Plant response rating, Morningglory (morningglory; Preemergence): 0
- Morningglory plant response rating (morningglory; [7]): 100
- Plant response rating, Pigweed (redroot pigweed; Postemergence, 125 g ai/ha): 50
- Pigweed plant response rating (redroot pigweed; [8]): 80
- Pigweed plant response rating (redroot pigweed; [9]): 70
- Plant response rating, Pigweed (redroot pigweed; Preemergence, 500 g ai/ha): 100
- Bromegrass, Downy plant response rating (downy brome; [5]): 45
- Bromegrass, Downy plant response rating (downy brome; [6]): 60
- Plant response rating, Bromegrass, Downy (downy brome; Preemergence): 0
- Bromegrass, Downy plant response rating (downy brome; [7]): 85
- Wheat plant response rating (wheat [2]; [5]): 60
- Wheat plant response rating (wheat [2]; [6]): 98
- Plant response rating, Wheat (wheat [2]; Preemergence): 0
- Wheat plant response rating (wheat [2]; [7]): 100
- Plant response rating, Ducksalad (duck salad; [10]): 0
- Plant response rating, Ducksalad (duck salad; [11]): 100
- Velvetleaf plant response rating (velvetleaf [3]; [5]): 100
- Velvetleaf plant response rating (velvetleaf [3]; [6]): 100
- Plant response rating, Velvetleaf (velvetleaf [3]; Preemergence): 0
- Velvetleaf plant response rating (velvetleaf [3]; [7]): 100
- Nutsedge, Yellow plant response rating (yellow nutsedge; [5]): 50
- Nutsedge, Yellow plant response rating (yellow nutsedge; [6]): 80
- Plant response rating, Nutsedge, Yellow (yellow nutsedge; Preemergence): 0
- Nutsedge, Yellow plant response rating (yellow nutsedge; [7]): 95
- Plant response rating, Wheat (wheat [4]; Postemergence, 125 g ai/ha): 20
- Wheat plant response rating (wheat [4]; [8]): 60
- Wheat plant response rating (wheat [4]; [9]): 20
- Plant response rating, Wheat (wheat [4]; Preemergence, 500 g ai/ha): 100
- Cupgrass, Woolly plant response rating (woolly cupgrass; [5]): 70
- Cupgrass, Woolly plant response rating (woolly cupgrass; [6]): 95
- Plant response rating, Cupgrass, Woolly (woolly cupgrass; Preemergence): 0
- Cupgrass, Woolly plant response rating (woolly cupgrass; [7]): 100
- Johnsongrass plant response rating (johnsongrass; [5]): 95
- Johnsongrass plant response rating (johnsongrass; [6]): 100
- Plant response rating, Johnsongrass (johnsongrass; Preemergence): 85
- Johnsongrass plant response rating (johnsongrass; [7]): 100

SMILES: Cc1cc[n+]([O-])c(S(=O)(=O)Cc2c(C(F)(F)F)nn(C)c2OCC(F)F)c1 [Compound 94]
- Oat, Wild plant response rating (wild oat; [5]): 65
- Oat, Wild plant response rating (wild oat; [6]): 65
- Plant response rating, Oat, Wild (wild oat; Preemergence): 35
- Oat, Wild plant response rating (wild oat; [7]): 98
- Galium plant response rating (catchweed bedstraw; [5]): 100
- Galium plant response rating (catchweed bedstraw; [6]): 100
- Plant response rating, Galium (catchweed bedstraw; Preemergence): 95
- Galium plant response rating (catchweed bedstraw; [7]): 100
- Plant response rating, Velvetleaf (velvetleaf [1]; Postemergence, 125 g ai/ha): 10
- Velvetleaf plant response rating (velvetleaf [1]; [8]): 70
- Velvetleaf plant response rating (velvetleaf [1]; [9]): 10
- Velvetleaf plant response rating (velvetleaf [1]; [12]): 100
- Nightshade plant response rating (eastern black nightshade; [5]): 55
- Nightshade plant response rating (eastern black nightshade; [6]): 100
- Plant response rating, Nightshade (eastern black nightshade; Preemergence): 50
- Nightshade plant response rating (eastern black nightshade; [7]): 100
- Corn plant response rating (corn; [5]): 10
- Corn plant response rating (corn; [6]): 90
- Corn plant response rating (corn; [7]): 95
- Plant response rating, Rice (rice; [10]): 0
- Plant response rating, Rice (rice; [11]): 20
- Foxtail, Giant plant response rating (giant foxtail; [5]): 95
- Foxtail, Giant plant response rating (giant foxtail; [6]): 100
- Plant response rating, Foxtail, Giant (giant foxtail; Preemergence): 90
- Foxtail, Giant plant response rating (giant foxtail; [7]): 100
- Morningglory plant response rating (morningglory; [5]): 90
- Morningglory plant response rating (morningglory; [6]): 98
- Plant response rating, Morningglory (morningglory; Preemergence): 30
- Morningglory plant response rating (morningglory; [7]): 100
- Plant response rating, Pigweed (redroot pigweed; Postemergence, 125 g ai/ha): 60
- Pigweed plant response rating (redroot pigweed; [8]): 80
- Pigweed plant response rating (redroot pigweed; [9]): 100
- Plant response rating, Pigweed (redroot pigweed; Preemergence, 500 g ai/ha): 100
- Bromegrass, Downy plant response rating (downy brome; [5]): 75
- Bromegrass, Downy plant response rating (downy brome; [6]): 80
- Plant response rating, Bromegrass, Downy (downy brome; Preemergence): 10
- Bromegrass, Downy plant response rating (downy brome; [7]): 95
- Wheat plant response rating (wheat [2]; [5]): 60
- Wheat plant response rating (wheat [2]; [6]): 80
- Plant response rating, Wheat (wheat [2]; Preemergence): 30
- Wheat plant response rating (wheat [2]; [7]): 80
- Plant response rating, Ducksalad (duck salad; [10]): 0
- Plant response rating, Ducksalad (duck salad; [11]): 75
- Velvetleaf plant response rating (velvetleaf [3]; [5]): 40
- Velvetleaf plant response rating (velvetleaf [3]; [6]): 100
- Plant response rating, Velvetleaf (velvetleaf [3]; Preemergence): 0
- Velvetleaf plant response rating (velvetleaf [3]; [7]): 100
- Nutsedge, Yellow plant response rating (yellow nutsedge; [5]): 55
- Nutsedge, Yellow plant response rating (yellow nutsedge; [6]): 60
- Plant response rating, Nutsedge, Yellow (yellow nutsedge; Preemergence): 0
- Nutsedge, Yellow plant response rating (yellow nutsedge; [7]): 98
- Plant response rating, Wheat (wheat [4]; Postemergence, 125 g ai/ha): 60
- Wheat plant response rating (wheat [4]; [8]): 80
- Wheat plant response rating (wheat [4]; [9]): 40
- Wheat plant response rating (wheat [4]; [12]): 90
- Cupgrass, Woolly plant response rating (woolly cupgrass; [5]): 90
- Cupgrass, Woolly plant response rating (woolly cupgrass; [6]): 100
- Plant response rating, Cupgrass, Woolly (woolly cupgrass; Preemergence): 10
- Cupgrass, Woolly plant response rating (woolly cupgrass; [7]): 100
- Johnsongrass plant response rating (johnsongrass; [5]): 95
- Johnsongrass plant response rating (johnsongrass; [6]): 100
- Plant response rating, Johnsongrass (johnsongrass; Preemergence): 85
- Johnsongrass plant response rating (johnsongrass; [7]): 100
